Measured values as given in patent publication US9999614B2, “Combination for the prophylaxis and treatment of behavioural, mental, and cognitive disorders” (LTD “VALENTA-INTELLEKT”, priority 2012, dated 2018).

Key:
[1] = tested on: amnesia in mice, as caused by electroconvulsive shock (ECS); assay: Conditioned passive avoidance reflex (CPAR), amnesia caused by electroconvulsive shock (ECS); format: in vivo; conditions: for Latent time of entering into the dark chamber / Number of mice not entered into the dark chamber, % / Number of mice taught to CPAR: + ECS, i.p. once a day for 5 days, Melatonin 5 mg, Memantin 10 mg mono-use; for Number of mice taught to CPAR: count of mice, human doses converted to mice; for Effect on the amnestic action of ECS (in words): summary of Tables 1-2, p<0.05 for the compositions
Method: (§1) For this, the active substances Melatonin 3 mg/Memantin 10 mg, Melatonin 5 mg/Memantin 20 mg, Melatonin 10 mg/Memantin 20 mg were taken, and doses recommended for human beings were converted into doses adapted for mice according to the formula “(active substance/70(average weight of a human being))×7”. Then the compositions were dissolved in 5 mL of the solution and, according to the given formula, introduced to animals intraperitoneally once a day for 5 days.
The action of the compositions on learning and memory factors were studied on white non-linear male mice having a weight 20+/−4 g, using the conditioned passive avoidance reflex (CPAR) of electroconvulsive shock (ECS) (Ya. Buresh et al., 1991; K. M. Dyumaev et al., 1995).
Electroconvulsive shock (ECS) was used as the amnesic action, the electric current parameters were: 50 Hz, 50 mA, 0.3 s, which was applied to mice with the use of electrodes in the shape of clips fixed on auricles, transpineally, just after teaching CPAR (see, “Manual for Experimental (Pre-Clinical) Studies of New Pharmacological Substances”, 2000). Pseudo-electroconvulsive shock was caused to the animals by applying pineal electrodes for causing ECS without applying electric current. The mice were tested for maintaining CPAR in certain time intervals after ECS.
(§2) The CPAR test is the main model for evaluating substance influences on formation and replication of short-time memory in a normal condition and in an abnormal condition, i.e., induced amnesia. The CPAR is the most informative method among the methods that are used today for evaluating efficiency of substances with influence on the CNS of mammals (see, “Manual for Experimental (Pre-Clinical) Studies of New Pharmacological Substances”, 2000). The CPAR (conditioned passive avoidance reflex in a dark, light chamber) was taught to the mice on the basis of electrodermal response according to the method proposed by Cumin et al. (1982) with due regard to the recommendations given by Mondadori et al. (1990). The installation for mice, as produced by Lafayette Instrument Co., USA, was a black chamber with the electrode floor and a white plastic platform that was arranged on the floor in the center of the chamber. The mice, one by one, were put onto the plastic platform. The animals went/jumped down onto the electrode floor where they received an electric current shock, i.e., punishment. Electric current was supplied after the time when an animal stood on the floor with all its four legs. The natural response of the animals is to go back to the current-free or safe platform. After several minutes of teaching, 5 minutes on the average, mice developed CPAR and remained on the safe platform. Tests for memorizing CPAR were conducted in successive time intervals after amnesic action. In a case where an animal went/jumped down onto the platform within 1 minute, it was recorded as having retrograde amnesia of the passive avoidance skill. The compositions were studied in comparison with Melatonin 5 mg (mono-use) and Memantin 10 mg (mono-use), according to the above formula for adapting to animal models.

[2] = tested on: amnestic effect caused by mice swimming in cold water, simultaneously rotating wheel to the point of exhaustion; assay: CPAR, amnesia induced by swimming in cold water with wheel rotation to the point of exhaustion; format: in vivo; conditions: Melatonin 5 mg, Memantin 10 mg mono-use
Method: as §1, §2
The antiamnestic action of the compositions on the amnesia model induced by swimming of mice in cold water with wheel rotation to the point of exhaustion. Studies were conducted on white non-linear male mice having a weight of 20-24 g with developing CPAR in the animals as in the previous studies. The animals were put, one by one, into a container filled with water and equipped with a rotating wheel. After teaching CPAR, the mice swam in cold water, simultaneously rotating the wheel to the point of exhaustion. The CPAR maintenance was checked in successive time intervals. As false imitation of swimming in cold water, mice were put onto a pad consisting of wet cold wadding. The substances and an isotonic solution of sodium chloride (control) were studied in comparison with Melatonin 5 mg (mono-use) and Memantin 10 mg (mono-use), in accordance with the above formula for adapting to animal models, by intraperitoneal introduction before teaching mice, once a day for 5 days.

[3] = tested on: amnesia caused by acute normobaric hypoxic hypoxia with hypercapnia; assay: Open-field method after acute normobaric hypoxic hypoxia with hypercapnia; format: in vivo, mice; conditions: i.p. once a day for 5 days, Melatonin 5 mg, Memantin 10 mg mono-use
Method: as §1
The antiamnestic action of the compositions was also carried out on an model of amnesia caused by acute normobaric hypoxic hypoxia with hypercapnia in a so-called hermetic chamber on white non-linear male mice having a weight of 20-24 Γ with the CPAR development in the animals according to the open-field method. After CPAR teaching the animals were put in the hermetic chamber for 16-18 minutes, depending on manifestation of hypoxia symptoms and weight. This model was reproduced by placing mice, one by one, in glass jars of equal volume that were hermetically sealed. With consumption of oxygen its concentration in the jar air and in the organism lowered and the quantity of carbon dioxide, on the contrary, raised. As the result, acute hypoxic hypoxia with hypercapnia developed in the animals. The animals of the control group were subjected to false hypoxia, that is, the mice were put in glass jars of equal volume that were not closed. The substances under study and the sodium chloride isotonic solution (control) were used in comparison with Melatonin 5 mg (mono-use) and Memantin 10 mg (mono-use) in accordance with the above formula for adapting to animal models by intraperitoneal introduction, before teaching the mice, once a day for 5 days.

Row | SMILES | Latent time of entering into the dark chamber ([1]; 1 day after teaching) | Number of mice not entered into the dark chamber, % ([1]; 1 day after teaching) | Latent time of entering into the dark chamber ([1]; 3 days after teaching) | Number of mice not entered into the dark chamber, % ([1]; 3 days after teaching) | Latent time of entering into the dark chamber ([1]; 7 days after teaching) | Number of mice not entered into the dark chamber, % ([1]; 7 days after teaching) | Latent time of entering into the dark chamber ([1]; 10 days after teaching) | Number of mice not entered into the dark chamber, % ([1]; 10 days after teaching) | Number of mice taught to CPAR [1] | Effect on the amnestic action of ECS (in words) [1] | Latent time of entering into the dark chamber ([2]; 1 day after teaching) | Number of mice not entered into the dark chamber, % ([2]; 1 day after teaching) | Latent time of entering into the dark chamber ([2]; 3 days after teaching) | Number of mice not entered into the dark chamber, % ([2]; 3 days after teaching) | Latent time of entering into the dark chamber ([2]; 7 days after teaching) | Number of mice not entered into the dark chamber, % ([2]; 7 days after teaching) | Latent time of entering into the dark chamber ([2]; 10 days after teaching) | Number of mice not entered into the dark chamber, % ([2]; 10 days after teaching) | Horizontal motion activity ([3]; 1st day after operation) | Inspection of holes ([3]; 1st day after operation) | further results
1 | COc1ccc2[nH]cc(CCNC(C)=O)c2c1 [Melatonin, N-acetyl-5-methoxytriptamine] | 108.3 ± 21.7 s | 66.7% | 105.6 ± 17.4 s | 58.3% | 103.3 ± 21.2 s | 58.3% | 103.2 ± 20.6 s | 33.3% | 9 | changed the amnestic action | 109.3 ± 9.8 s | 61.5% | 105.4 ± 13.5 s | 46.1% | 104.6 ± 15.1 s | 38.5% | 100.9 ± 17.4 s | 30.7% | 6.9 ± 2.3 | 1.7 ± 0.6 | Vertical motion activity ([3]; 1st day after operation): 3.2 ± 1.2; Horizontal motion activity ([3]; 3rd day after operation): 8.2 ± 1.4; Inspection of holes ([3]; 3rd day after operation): 1.9 ± 0.8; Vertical motion activity ([3]; 3rd day after operation): 3.5 ± 0.9; Horizontal motion activity ([3]; 7th day after operation): 8.3 ± 2.8; Inspection of holes ([3]; 7th day after operation): 2.4 ± 0.5; Vertical motion activity ([3]; 7th day after operation): 3.2 ± 1.3; Horizontal motion activity ([3]; 10th day after operation): 8.1 ± 1.7; Inspection of holes ([3]; 10th day after operation): 2.6 ± 2.9; Vertical motion activity ([3]; 10th day after operation): 3.6 ± 2.3
2 | CC12CC3CC(C)(C1)CC(N)(C3)C2 [Memantin] | 104.6 ± 19.2 s | 36.3% | 109.5 ± 22.1 s | 54.5% | 110.1 ± 18.9 s | 63.6% | 109.8 ± 21.1 s | 63.6% | 8 | changed the amnestic action | 111.3 ± 22.3 s | 41.6% | 115.9 ± 16.5 s | 50% | 117.4 ± 28.1 s | 66.6% | 118.0 ± 23.3 s | 66.6% | 7.1 ± 2.7 | 2.1 ± 1.1 | Vertical motion activity ([3]; 1st day after operation): 3.7 ± 1.9; Horizontal motion activity ([3]; 3rd day after operation): 8.9 ± 4.9; Inspection of holes ([3]; 3rd day after operation): 2.5 ± 1.1; Vertical motion activity ([3]; 3rd day after operation): 3.3 ± 1.2; Horizontal motion activity ([3]; 7th day after operation): 9.6 ± 3.4; Inspection of holes ([3]; 7th day after operation): 3.0 ± 2.7; Vertical motion activity ([3]; 7th day after operation): 3.7 ± 1.8; Horizontal motion activity ([3]; 10th day after operation): 11.3 ± 1.7; Inspection of holes ([3]; 10th day after operation): 3.2 ± 1.3; Vertical motion activity ([3]; 10th day after operation): 4.1 ± 2.5
